Results taken from paper PMC8333053, “Synthesis and biological screening of new thiadiazolopyrimidine-based polycyclic compounds” (Scientific Reports, 2021).
≈ marks a conversion by molar mass, not a printed value.

Tests used:
Bacillus cereus UW85 = assay: Antibacterial MIC, two-fold serial dilution; type: cell-based; conditions: Gram +ve bacteria, LB broth, 37°C, 24 h, visual (no turbidity), read-out: MIC B. cereus
Experimental: (§1) The antimicrobial activity of the synthesized thiadiazolopyrimidine compounds was studied toward diverse pathogenic strains, such as gram-positive bacteria (Staphylococcus aureus ATCC 29213 and Bacillus cereus UW85), gram-negative bacteria (Escherichia coli ATCC 12435 and Pseudomonas aeruginosa ATCC 29260), and fungi (Candida albicans and Aspergillus fumigatus 293). The assessment was performed through the two-fold dilution technique using Ampicillin (antibacterial) and Fluconazole (antifungal) as the reference drugs[28],[29]. The minimal inhibitory concentration (MICs, µg/mL) of the synthesized derivatives for prohibiting microbial growth was determined through the visual detection (no turbidity) technique.
(§2) The synthesized thiadiazolopyrimidine-based compounds were evaluated and adopted for antibacterial and antifungal effectiveness using the approved procedure[38],[39].
(§3) Minimal inhibitory concentrations (MICs) were determined by serial dilution technique using 96-multiwell microtiter plates. The investigated compounds were dissolved in DMSO 100% to prepare stock solutions of 5000 µg/mL. Two-fold serial dilutions of the dissolved compounds were performed in LB broth providing eight different concentrations (1250, 625, 312.5, 156, 78, 39, 19.5 µg/mL). Overnight cultures of microorganisms were diluted to 1 ×10^6 CFU/mL in LB broth, and 20 mL of the diluted cultures were added to the test solutions (50 mL) in the wells (one well per concentration per bacterial strain). The plates were incubated at 37°C for 24 h. MIC was detected visually as the least concentration inhibiting bacterial growth (no turbidity) and the activity of the tested compounds was estimated in comparison to ampicillin.

[1] = system: Escherichia coli ATCC 12435; assay: Antibacterial MIC, two-fold serial dilution; type: cell-based; conditions: ATCC12435, Gram −ve bacteria, LB broth, 37°C, 24 h, visual (no turbidity)
Experimental: as §1, §2, §3

[2] = system: Pseudomonas aeruginosa ATCC 29260; assay: Antibacterial MIC, two-fold serial dilution; type: cell-based; conditions: ATCC29260, Gram −ve bacteria, LB broth, 37°C, 24 h, visual (no turbidity), read-out: MIC P. aeruginosa
Experimental: as §1, §2, §3

[3] = system: Staphylococcus aureus ATCC 29213; assay: Antibacterial MIC, two-fold serial dilution; type: cell-based; conditions: ATCC29213, Gram +ve bacteria, LB broth, 37°C, 24 h, visual (no turbidity), read-out: MIC S. aureus
Experimental: as §1, §2, §3

[4] = system: Aspergillus fumigatus 293; assay: Antifungal MIC, two-fold serial dilution; type: cell-based; conditions: Fungi, glucose minimal medium, 30°C, 48 h, visual (no turbidity)
Experimental: as §1, §2
(§4) Minimal inhibitory concentrations (MICs) were determined by serial dilution technique using 96-multiwell microtiter plates. The investigated compounds were dissolved in DMSO 100% to prepare stock solutions of 5000 µg/mL. Two-fold serial dilutions of the dissolved compounds were performed in glucose minimal medium providing eight different concentrations (1250, 625, 312.5, 156, 78, 39, 19.5 µg/mL). The microorganisms were diluted to 1 ×10^3 SFU/mL in glucose minimal medium, and 20 µL of the diluted culture was added to the test solutions (50 µL) in the wells (one well per concentration). The plates were incubated at 30°C for 48 h. MIC was detected visually as the least concentration inhibiting fungal growth (no turbidity) and the activity of the tested compounds was estimated in comparison to fluconazole.

Candida albicans = assay: Antifungal MIC, two-fold serial dilution; type: cell-based; conditions: Fungi, glucose minimal medium, 30°C, 48 h, visual (no turbidity)
Experimental: as §1, §2, §4

[5] = system: Chromobacterium violaceum (ATCC 12472); assay: Antiquorum-sensing assay (violacein pigment inhibition); type: cell-based; conditions: Chromobacterium violaceum, ATCC12472, 48 h, read-out: Diameter of quorum-sensing inhibition C. violaceum
Source text: The synthesized thiadiazolopyrimidine-based compounds were screened for their antiquorum-sensing (anti-QS) inhibition activity by the Chromobacterium violaceum (ATCC 12472) technique using catechin as the standard compound[28]–[30]. The QS technique of C. violaceum was remarked by the detection of violacein (violet pigment)[31],[32]. Meanwhile, the reactivity of the synthesized thiadiazolopyrimidine-containing derivatives as drugs depends on their efficiency to inhibit the liberation of violacein during the QS technique. The QS inhibition was determined by the following equation: QS inhibition (mm) = (r2 − r1), where r1 is the inhibition radius of the bacterial growth and r2 is the inhibition radius for growth as well as the release of the pigment.
The anti-QS inefficiency was evaluated using the previous technique mentioned in the literature.
The culture was prepared by growing Ch. violaceum ATCC 12472 in LB broth and incubated for 16–18 h in an orbital incubator running at 28°C and 150 rpm. The culture was then adjusted to 0.5 McFarland standard (ca. 1 × 10^6 CFU/mL). Ch. violaceum (50 µL) was inoculated into LB agar (50 mL), poured into plates, and solidified. Wells were made in LB agar medium using cork borer. The tested compounds were dissolved in DMSO 100% in Eppendorf tubes for final concentration of 5 mg/mL, and 50 µL of the test solution was applied into the wells. The positive control (catechin) was also added at the same concentration and volume to each plate. In addition, DMSO (control solvent) was added to each plate. […] Bacterial growth inhibition by the tested compounds was measured as radius (r1) in mm, while both growth and pigment inhibition was measured as radius (r2) in mm. The pigment inhibition (QS inhibition) was determined by subtracting bacterial growth inhibition (r1) from the total radius (r2); thus, QS inhibition = (r2 - r1) in mm.

DNA = assay: Bleomycin-dependent DNA damage; type: biochemical; conditions: test sample 0.1 mg/mL, λ = 532 nm; mean of three replicates ± SD; ascorbic acid 0.24 mM
Source text: Bleomycin-dependent DNA damage. The prepared polycyclic thiadiazolopyrimidine-based compounds were examined through the bleomycin-dependant DNA damage, and the results were compared to that of ascorbic acid as a positive control. The obtained data reflected the ability of these derivatives to protect the DNA from damage. The capability of compounds 16a–b and 17a–b to manifest the best protective effect against DNA damage was indicated by the corresponding absorbance values ranging from 0.031 to 0.053 (Table 4)[35],[36].
Bleomycin-dependent DNA damage experiment: To a mixture of 0.5 mg / mL of DNA, 5 mM magnesium chloride, 50 mM ferric chloride and 0.05 mg / mL bleomycin sulfate was prepared. The test sample was prepared at a concentration of 0.1 mg / mL and added to the mixture. After incubation of the mixture for one hour at 37 °C, 0.05 mL of EDTA (0.1 M) was added to terminate the reaction. In the next step, 0.5 mL of TBA (1% w / v) and 0.5 mL of HCl (25% v / v) were added for colour development and the mixture was heated for 10 minutes at 80 °C. The mixture was centrifuged and the absorbance expressed, the amount of damage to the DNA was measured at λ = 532 nm. L-Ascorbic acid (0.24 mM) was used as a positive control.

| Structure (SMILES) | MIC (Bacillus cereus UW85) [µg/mL] | MIC [1] [µg/mL] | MIC [2] [µg/mL] | MIC [3] [µg/mL] | MIC [4] [µg/mL] | MIC (Candida albicans) [µg/mL] | zone of inhibition at 5000 µg/mL [5] [mm] | Absorbance (bleomycin-dependent DNA damage) (DNA) |
| --- | --- | --- | --- | --- | --- | --- | --- | --- |
| Nc1c2c(=O)nc3scnn3c2nc2nnnn12 [Compound 11, 6-Amino-5H-[1,3,4]thiadiazolo[2′,3′:2,3]pyrimido[4,5-d]tetrazolo[1,5-a]pyrimidin-5-one] | 1250 (≈ 4790 µM) | > 1250 | 1250 (≈ 4790 µM) | 312 (≈ 1200 µM) | > 1250 | 1250 (≈ 4790 µM) | 5 | 0.113 ± 0.16 |
| CC1=C(C#N)C2C(=C(N)O1)C(=O)N=C1SC=NN12 (stereo not drawn) [Compound 9a, 6-Amino-9-cyano-8-methyl-5-oxo-5H,9aH-pyrano[3,4-e][1,3,4]thiadiazolo[3,2-a]pyrimidine] | 312 (≈ 1200 µM) | 625 (≈ 2390 µM) | 625 (≈ 2390 µM) | 312 (≈ 1200 µM) | > 1250 | 312 (≈ 1200 µM) | 11 | 0.064 ± 0.06 |
| CC1=C(C(=O)c2ccccc2)C2C(=C(N)O1)C(=O)N=C1SC=NN12 (stereo not drawn) [Compound 8b, 6-Amino-9-benzoyl-8-methyl-5H,9aH-pyrano[3,4-e][1,3,4]thiadiazolo[3,2-a]pyrimidin-5-one] | 312 (≈ 918 µM) | 1250 (≈ 3670 µM) | 312 (≈ 918 µM) | 156 (≈ 458 µM) | 1250 (≈ 3670 µM) | 156 (≈ 458 µM) | 12 | 0.066 ± 0.05 |
| N#CC1=C(c2ccccc2)OC(N)=C2C(=O)N=C3SC=NN3C12 (stereo not drawn) [Compound 9b, 6-Amino-9-cyano-5-oxo-8-phenyl-5H,9aH-pyrano[3,4-e][1,3,4]thiadiazolo[3,2-a]pyrimidine] | 156 (≈ 482 µM) | 625 (≈ 1930 µM) | 625 (≈ 1930 µM) | 312 (≈ 966 µM) | > 1250 | 312 (≈ 966 µM) | 3 | 0.083 ± 0.08 |
| Cc1nn(-c2ccccc2)c2c1C1C(=C(N)O2)C(=O)N=C2SC=NN21 (stereo not drawn) [Compound 10b, 6-Amino-10-methyl-8-phenyl-8,10b-dihydro-5H-pyrazolo[4′,3′:5,6]pyrano[3,4-e][1,3,4]thiadiazolo[3,2-a]pyrimidin-5-one] | 625 (≈ 1770 µM) | 312 (≈ 887 µM) | 625 (≈ 1770 µM) | 625 (≈ 1770 µM) | > 1250 | > 1250 | 9 | 0.119 ± 0.13 |
| Cc1n[nH]c2c1C1C(=C(N)O2)C(=O)N=C2SC=NN21 (stereo not drawn) [Compound 10a, 6-Amino-10-methyl-8,10b-dihydro-5H-pyrazolo[4′,3′:5,6]pyrano[3,4-e][1,3,4]thiadiazolo[3,2-a]pyrimidin-5-one] | 625 (≈ 2260 µM) | 1250 (≈ 4520 µM) | 312 (≈ 1130 µM) | 625 (≈ 2260 µM) | > 1250 | 625 (≈ 2260 µM) | 13 | 0.098 ± 0.07 |
| COc1ccc(N=Nc2c(N)nn3c(N)c4c(=O)nc5scnn5c4nc23)cc1 [Compound 16b, 6,9-Diamino-10-(4-methoxyphenylazo)-5H-pyrazolo[1′,5′:1,2]pyrimido[5,4-e][1,3,4]thiadiazolo[3,2-a]pyrimidin-5-one] | > 1250 | 19.5 (≈ 47.7 µM) | 78 (≈ 191 µM) | 625 (≈ 1530 µM) | > 1250 | > 1250 | 12 | 0.031 ± 0.04 |
| COc1ccc(N=Nc2c(O)nn3c(N)c4c(=O)nc5scnn5c4nc23)cc1 [Compound 17b, 6-Amino-9-hydroxy-10-(4-methoxyphenylazo)-5H-pyrazolo[1′,5′:1,2]pyrimido[5,4-e][1,3,4]thiadiazolo[3,2-a]pyrimidin-5-one] | 625 (≈ 1530 µM) | 19.5 (≈ 47.6 µM) | 39 (≈ 95.3 µM) | 1250 (≈ 3050 µM) | 1250 (≈ 3050 µM) | 1250 (≈ 3050 µM) | 12 | 0.042 ± 0.03 |
| CC(=O)C1=C(C)OC(N)=C2C(=O)N=C3SC=NN3C12 (stereo not drawn) [Compound 8a, 9-Acetyl-6-amino-8-methyl-5H,9aH-pyrano[3,4-e][1,3,4]thiadiazolo[3,2-a]pyrimidin-5-one] | 625 (≈ 2250 µM) | 1250 (≈ 4490 µM) | 1250 (≈ 4490 µM) | 312 (≈ 1120 µM) | > 1250 | 312 (≈ 1120 µM) | 3 | 0.078 ± 0.13 |
| N#Cc1c(N)nc(N)c2c(=O)nc3scnn3c12 [Compound 6, 6,8-Diamino-9-cyano-5-oxo-5H-pyrido[3,4-e][1,3,4]thiadiazolo[3,2-a]pyrimidine] | 1250 (≈ 4820 µM) | > 1250 | 1250 (≈ 4820 µM) | > 1250 | > 1250 | > 1250 | < 2 | 0.135 ± 0.14 |
| N#Cc1cn2ncsc2nc1=O [Compound 3, 6-cyano-7-oxo-7H-[1,3,4]thiadiazolo[3,2-a]pyrimidine] | > 1250 | > 1250 | > 1250 | 1250 (≈ 7020 µM) | > 1250 | > 1250 | < 2 | 0.281 ± 0.22 |
| CCOC(=O)c1c(N)nc(N)c2c(=O)nc3scnn3c12 [Compound 7, Ethyl 6,8-diamino-5-oxo-5H-pyrido[3,4-e][1,3,4]thiadiazolo[3,2-a]pyrimidine-9-carboxylate] | 1250 (≈ 4080 µM) | 625 (≈ 2040 µM) | 1250 (≈ 4080 µM) | 1250 (≈ 4080 µM) | > 1250 | > 1250 | < 2 | 0.132 ± 0.19 |
